Measured values taken from the supplement of paper PMC4862054.

Assays:
Conditions in all cases: incubation time: 72 h
[1] = tested on: MDA-MB-231; assay: normalised response (% of control), CellTox Green; higher = less cell death (100 = DMSO, 0 = benzethonium chloride kill control)
Procedure, shortened: (§1)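 Plates were normalised with 0.1 % DMSO as 100 and a positive kill control as 0. Breast cancer cell lines in 20 µl suspension had been seeded into 384-well plates with compound at 5 concentrations in 10-fold steps over a compound-specific 10,000-fold range, incubated 72 h, and read for CellTox Green fluorescence (485/520 nm) followed by CellTiter-Glo luminescence. Each value is the normalised signal at a single concentration.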

[2] = tested on: Hs578T; assay: as above
Procedure, shortened: as §1

[3] = tested on: MCF-10A; assay: as above
Procedure, shortened: as §1

[4] = tested on: MDA-MB-453; assay: as above
Procedure, shortened: as §1

[5] = tested on: CAL-51; assay: as above
Procedure, shortened: as §1

[6] = tested on: HDQ-P1; assay: as above
Procedure, shortened: as §1

[7] = tested on: DU-4475; assay: as above
Procedure, shortened: as §1

[8] = tested on: HCC1143; assay: as above
Procedure, shortened: as §1

[9] = tested on: BT-474; assay: as above
Procedure, shortened: as §1

[10] = tested on: HCC1937; assay: as above
Procedure, shortened: as §1

[11] = tested on: HCC1599; assay: as above
Procedure, shortened: as §1

[12] = tested on: MDA-MB-468; assay: as above
Procedure, shortened: as §1

[13] = tested on: CAL-148; assay: as above
Procedure, shortened: as §1

[14] = tested on: CAL-120; assay: as above
Procedure, shortened: as §1

[15] = tested on: CAL-85-1; assay: as above
Procedure, shortened: as §1

[16] = tested on: MFM-223; assay: as above
Procedure, shortened: as §1

[17] = tested on: BT-549; assay: as above
Procedure, shortened: as §1

[18] = tested on: MDA-MB-231; assay: normalised response (% of control), CellTiter-Glo; higher = more viable cells (100 = DMSO, 0 = benzethonium chloride kill control)
Description: (§2)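 DSRT, 72 h incubation, CellTox Green / CellTiter-Glo readout. Signal is normalised to DMSO and benzethonium chloride controls. Value is the normalised response at dose 3.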

[19] = tested on: Hs578T; assay: as above
Description: as §2

[20] = tested on: MCF-10A; assay: as above
Description: as §2

[21] = tested on: MDA-MB-453; assay: as above
Description: as §2

[22] = tested on: CAL-51; assay: as above
Description: as §2

[23] = tested on: HDQ-P1; assay: as above
Description: as §2

[24] = tested on: DU-4475; assay: as above
Description: as §2

[25] = tested on: HCC1143; assay: as above
Description: as §2

[26] = tested on: BT-474; assay: as above
Description: as §2

[27] = tested on: HCC1937; assay: as above
Description: as §2

[28] = tested on: HCC1599; assay: as above
Description: as §2

[29] = tested on: MDA-MB-468; assay: as above
Description: as §2

[30] = tested on: CAL-148; assay: as above
Description: as §2

[31] = tested on: CAL-120; assay: as above
Description: as §2

[32] = tested on: SK-BR-3; assay: as above
Description: as §2

[33] = tested on: MDA-MB-436; assay: as above
Description: as §2

[34] = tested on: CAL-85-1; assay: as above
Description: as §2

[35] = tested on: MFM-223; assay: as above
Description: as §2

[36] = tested on: BT-549; assay: as above
Description: as §2

[37] = tested on: MDA-MB-436; assay: normalised response (% of control), CellTox Green; higher = less cell death (100 = DMSO, 0 = benzethonium chloride kill control)
Procedure, shortened: as §1

SMILES	normalised response [1] [%]	normalised response [2] [%]	normalised response [3] [%]	normalised response [4] [%]	normalised response [5] [%]	normalised response [6] [%]	normalised response [7] [%]	normalised response [8] [%]	normalised response [9] [%]	normalised response [10] [%]	normalised response [11] [%]	normalised response [12] [%]	normalised response [13] [%]	normalised response [14] [%]	normalised response [15] [%]	normalised response [16] [%]	normalised response [17] [%]	normalised response [18] [%]	normalised response [19] [%]	normalised response [20] [%]	normalised response [21] [%]	normalised response [22] [%]	normalised response [23] [%]	normalised response [24] [%]	normalised response [25] [%]	normalised response [26] [%]	normalised response [27] [%]	normalised response [28] [%]	normalised response [29] [%]	normalised response [30] [%]	normalised response [31] [%]	normalised response [32] [%]	normalised response [33] [%]	normalised response [34] [%]	normalised response [35] [%]	normalised response [36] [%]	normalised response [37] [%]
O=C(NC[C@H](O)CO)c1ccncc1Nc1ccc(I)cc1F [Pimasertib] (100 nM)	59.1	113	98.9	99.4	107	104	69.4	99.8	98	101	118	108	107	96.5	91.4	107	59.3	83.5	88.9	41.7	112	73.7	67.1	4.09	94.7	81.9	89.2	85.2	95.3	90.4	92.4	94	97.5	82.4	103	103	–
COc1nc(N)nc2c1ncn2[C@@H]1O[C@H](CO)[C@@H](O)[C@@H]1O [Nelarabine] (100 nM)	92.1	107	–	97.5	93.8	–	95.2	–	75.7	88.7	87	135	104	98.4	90.6	100	98.7	94.2	87.1	84.9	87.2	90.7	95.9	93.6	103	89.2	95.5	103	95.6	83.2	94.2	77.8	94	94.7	89	98.1	90.5
Cc1c(Cn2c(C)nc3c(C(=O)O)cc(N4CCOCC4)cc32)cccc1C(F)(F)F (100 nM)	124	109	101	111	86.7	–	109	113	104	78	107	134	105	106	104	107	111	104	101	111	91.3	62.5	103	103	101	97.2	94.5	101	89.2	111	102	107	102	96.6	108	86.2	108
O=S(=O)(c1cccc2cnccc12)N1CCCNCC1 [Fasudil] (500 nM)	101	104	95	99.9	102	102	100	75	98.3	83.3	101	78.7	69.2	100	95.6	91.7	91.3	103	104	90.7	112	85.6	105	106	101	98.3	100	107	101	105	97.9	101	103	112	108	101	–
Cc1cccc(-c2nn3c(c2-c2ccnc4ccc(C(N)=O)cc24)CCC3)n1 [Galunisertib] (10 nM)	116	100	82.4	103	114	–	109	70.5	103	123	116	101	106	105	107	107	114	113	103	111	110	120	104	108	103	108	101	102	107	112	109	110	106	96.8	106	104	104
CC(=O)OC[C@H]1O[C@@H]([S-])[C@H](OC(C)=O)[C@@H](OC(C)=O)[C@@H]1OC(C)=O.CCP(CC)CC.[Au+] [Auranofin] (25 nM)	123	–	62.3	109	100	93.8	112	88.9	105	113	111	117	108	110	122	102	110	103	103	104	104	92.5	101	98.2	104	96.8	93.8	89.1	103	111	100	101	103	99	97.8	93.1	–
Cc1c(CN2CCN(C(=O)[C@H](C)O)CC2)sc2c(N3CCOCC3)nc(-c3cnc(N)nc3)nc12 [GDC-0980] (100 nM)	81.2	–	83.3	98	112	110	99.9	113	101	114	106	124	–	102	106	105	106	97.1	86.2	90.8	75.8	86.3	84	98	92.9	93.5	89.3	98.3	95.9	102	96.2	72.5	92.5	99.9	93.6	90.1	108
O=C(CCBr)N1CCN(C(=O)CCBr)CC1 [Pipobroman] (100 nM)	94.4	–	84.8	–	101	107	101	108	87.5	–	96.6	–	105	101	109	103	70.2	105	105	106	93.2	88	102	106	105	102	106	115	102	105	102	107	91.5	101	103	97.6	101
CCCCC/C=C/C=C1/C(=O)C=C[C@@H]1C/C=C\CCCC(=O)O [15D-PGJ2] (8 nM)	118	113	64.6	–	107	–	110	105	102	101	111	82	88.1	99.3	109	100	112	107	96.9	101	100	97.1	103	101	104	98.7	99.1	86.3	94	112	107	99.4	101	100	98.5	99.3	103
